Assay results published in ChEMBL document CHEMBL3132847, “Pseudopeptides with a centrally positioned alkene-based disulphide bridge mimetic stimulate kallikrein-related peptidase 3 activity” (Medchemcomm, 2013).
Calls of active or inactive are those of the source. The rule behind the calls is not given here. Bridge positions count the residues as written; N and C are the ends. Square brackets hold non-standard residues; d marks the D form. Peptide text beside a SMILES is read from it. AllylGly = C=CC[C@H](N)C(=O)O; Aoc = NCCCCCCCC(=O)O

Legend:
[1] = target: T1, Prostate-specific antigen (Homo sapiens) (UniProt P07288); assay: Stimulation of KLK3 (unknown origin) proteolytic activity using chromogenic chymotrypsin MeO-Suc-Arg-Pro-Tyr-pNA substrate at 20 ug/ml pre-incubated for 30 mins before addition of substrate by […] relative to untreated control
T1 sequence (whole entry): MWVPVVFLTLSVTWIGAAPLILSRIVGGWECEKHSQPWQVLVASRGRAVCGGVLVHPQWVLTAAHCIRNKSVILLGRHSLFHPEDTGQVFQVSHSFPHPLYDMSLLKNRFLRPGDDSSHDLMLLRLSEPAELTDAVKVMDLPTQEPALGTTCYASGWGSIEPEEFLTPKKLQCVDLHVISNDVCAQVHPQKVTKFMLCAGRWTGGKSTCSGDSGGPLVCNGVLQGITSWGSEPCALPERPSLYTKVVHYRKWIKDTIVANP

[2] = target: T1, Prostate-specific antigen (Homo sapiens); assay: Stimulation of KLK3 (unknown origin) proteolytic activity using chromogenic chymotrypsin MeO-Suc-Arg-Pro-Tyr-pNA substrate at 200 ug/ml pre-incubated for 30 mins before addition of substrate by […] relative to untreated control

| Activity [1] | fold change (FC) [2] | Structure (SMILES) |
| --- | --- | --- |
| 84% | – | CC(C)[C@@H]1NC(=O)[C@@H](N)CSSC[C@@H](C(N)=O)NC(=O)[C@H]([C@@H](C)O)NC(=O)[C@H](Cc2c[nH]c3ccccc23)NC(=O)[C@H](C)NC(=O)[C@@H]2CSSC[C@H](NC(=O)[C@H](C)NC(=O)[C@H](Cc3ccc(O)cc3)NC(=O)[C@H](C)NC1=O)C(=O)N[C@@H](CCC(=O)O)C(=O)N[C@@H](Cc1cnc[nH]1)C(=O)N2 (H-CVAYACEHCAWTC-NH2; disulfide 1-13, 6-9) |
| 299% | – | CC(C)[C@@H]1NC(=O)[C@@H](N)CSSC[C@@H](C(N)=O)NC(=O)[C@H]([C@@H](C)O)NC(=O)[C@H](Cc2c[nH]c3ccccc23)NC(=O)[C@@H]2CSSC[C@H](NC(=O)[C@H](Cc3ccc(O)cc3)NC(=O)[C@H](C)NC1=O)C(=O)N[C@@H](C)C(=O)N[C@@H](CCC(=O)O)C(=O)N[C@@H](Cc1cnc[nH]1)C(=O)N[C@@H](Cc1cnc[nH]1)C(=O)N2 (H-CVAYCAEHHCWTC-NH2; disulfide 1-13, 5-10) |
| 476% | – | CC[C@H](C)[C@@H]1NC(=O)[C@@H]2CSSC[C@H](NC(=O)[C@H](Cc3cnc[nH]3)NC(=O)[C@H](C)NC(=O)[C@H](C)NC1=O)C(=O)N[C@@H](Cc1c[nH]c3ccccc13)C(=O)N[C@@H]([C@@H](C)O)C(=O)N[C@H](C(N)=O)CSSC[C@H](N)C(=O)N[C@@H](C(C)C)C(=O)N[C@@H](C)C(=O)N[C@@H](Cc1ccc(O)cc1)C(=O)N2 (H-CVAYCIAAHCWTC-NH2; disulfide 1-13, 5-10) |
| 583% | – | CC(C)[C@@H]1NC(=O)[C@@H](N)CSSC[C@@H](C(N)=O)NC(=O)[C@H]([C@@H](C)O)NC(=O)[C@H](Cc2c[nH]c3ccccc23)NC(=O)[C@@H]2CSSC[C@H](NC(=O)[C@H](Cc3ccc(O)cc3)NC(=O)[C@H](C)NC1=O)C(=O)N[C@@H](Cc1ccccc1)C(=O)N[C@@H](CCC(=O)O)C(=O)N[C@@H](Cc1cnc[nH]1)C(=O)N[C@@H](Cc1cnc[nH]1)C(=O)N2 (H-CVAYCFEHHCWTC-NH2; disulfide 1-13, 5-10) |
| inactive | – | CC(C)[C@@H]1NC(=O)[C@@H](N)CSSC[C@@H](C(=O)O)NC(=O)[C@H]([C@@H](C)O)NC(=O)[C@H](Cc2c[nH]c3ccccc23)NC(=O)CCCCCCCNC(=O)[C@H](Cc2ccc(O)cc2)NC(=O)[C@H](C)NC1=O (H-CVAY[Aoc]WTC-OH; disulfide 1-8) |
| 239% | – | CC[C@H](C)[C@@H]1NC(=O)[C@@H]2CSSC[C@H](NC(=O)[C@H](C)NC(=O)[C@H](Cc3cnc[nH]3)NC(=O)[C@H](C)NC1=O)C(=O)N[C@@H](Cc1c[nH]c3ccccc13)C(=O)N[C@@H]([C@@H](C)O)C(=O)N[C@H](C(N)=O)CSSC[C@H](N)C(=O)N[C@@H](C(C)C)C(=O)N[C@@H](C)C(=O)N[C@@H](Cc1ccc(O)cc1)C(=O)N2 (H-CVAYCIAHACWTC-NH2; disulfide 1-13, 5-10) |
| 436% | – | CC(C)C[C@@H]1NC(=O)[C@@H]2CSSC[C@H](NC(=O)[C@H](Cc3cnc[nH]3)NC(=O)[C@H](Cc3cnc[nH]3)NC(=O)[C@H](CCC(=O)O)NC1=O)C(=O)N[C@@H](Cc1c[nH]c3ccccc13)C(=O)N[C@@H]([C@@H](C)O)C(=O)N[C@H](C(N)=O)CSSC[C@H](N)C(=O)N[C@@H](C(C)C)C(=O)N[C@@H](C)C(=O)N[C@@H](Cc1ccc(O)cc1)C(=O)N2 (H-CVAYCLEHHCWTC-NH2; disulfide 1-13, 5-10) |
| 152% | – | CC(C)[C@@H]1NC(=O)[C@@H](N)CSSC[C@@H](C(N)=O)NC(=O)[C@H]([C@@H](C)O)NC(=O)[C@H](Cc2c[nH]c3ccccc23)NC(=O)[C@@H]2CSSC[C@H](NC(=O)[C@H](Cc3ccc(O)cc3)NC(=O)[C@H](C)NC1=O)C(=O)NCC(=O)N[C@@H](CCC(=O)O)C(=O)N[C@@H](Cc1cnc[nH]1)C(=O)N[C@@H](Cc1cnc[nH]1)C(=O)N2 (H-CVAYCGEHHCWTC-NH2; disulfide 1-13, 5-10) |
| 625% | – | CC[C@H](C)[C@@H]1NC(=O)[C@@H]2CSSC[C@H](NC(=O)[C@H](Cc3cnc[nH]3)NC(=O)[C@H](Cc3cnc[nH]3)NC(=O)[C@H](CCC(=O)O)NC1=O)C(=O)N[C@@H](Cc1c[nH]c3ccccc13)C(=O)N[C@@H]([C@@H](C)O)C(=O)N[C@H](C(=O)O)CSSC[C@H](N)C(=O)N[C@@H](C(C)C)C(=O)N[C@@H](C)C(=O)N[C@@H](Cc1ccc(O)cc1)C(=O)N2 (H-CVAYCIEHHCWTC-OH; disulfide 1-13, 5-10) |
| 223% | 4 | CC(C)[C@@H]1NC(=O)[C@@H](N)CSSC[C@@H](C(=O)O)NC(=O)[C@H]([C@@H](C)O)NC(=O)[C@H](Cc2c[nH]c3ccccc23)NC(=O)[C@@H]2C/C=C/C[C@H](NC(=O)[C@H](Cc3ccc(O)cc3)NC(=O)[C@H](C)NC1=O)C(=O)N[C@@H](Cc1ccccc1)C(=O)N[C@@H](CCC(=O)O)C(=O)N[C@@H](Cc1cnc[nH]1)C(=O)N[C@@H](Cc1cnc[nH]1)C(=O)N2 (H-CVAY[AllylGly]FEHH[AllylGly]WTC-OH; disulfide 1-13; staple (E) 5-10) |
| inactive | – | CC[C@H](C)[C@@H]1NC(=O)[C@@H](NC(=O)[C@H](Cc2ccc(O)cc2)NC(C)=O)C/C=C/C[C@@H](C(=O)N[C@@H](Cc2c[nH]c3ccccc23)C(=O)O)NC(=O)[C@H](Cc2cnc[nH]2)NC(=O)[C@H](Cc2cnc[nH]2)NC(=O)[C@H](CCC(=O)O)NC1=O (Ac-Y[AllylGly]IEHH[AllylGly]W-OH; staple (E) 2-7) |
| 127% | – | CC[C@H](C)[C@@H]1NC(=O)[C@@H]2CSSC[C@H](NC(=O)[C@H](Cc3cnc[nH]3)NC(=O)[C@H](Cc3cnc[nH]3)NC(=O)[C@H](CCC(=O)O)NC1=O)C(=O)N[C@@H](Cc1c[nH]c3ccccc13)C(=O)N[C@@H](C)C(=O)N[C@H](C(N)=O)CSSC[C@H](N)C(=O)N[C@@H](C)C(=O)N[C@@H](C)C(=O)N[C@@H](Cc1ccc(O)cc1)C(=O)N2 (H-CAAYCIEHHCWAC-NH2; disulfide 1-13, 5-10) |
| 189% | – | CC[C@H](C)[C@@H]1NC(=O)[C@@H]2C/C=C/C[C@H](NC(=O)[C@H](Cc3cnc[nH]3)NC(=O)[C@H](Cc3cnc[nH]3)NC(=O)[C@H](CCC(=O)O)NC1=O)C(=O)N[C@@H](Cc1c[nH]c3ccccc13)C(=O)N[C@@H]([C@@H](C)O)C(=O)N[C@H](C(=O)O)CSSC[C@H](N)C(=O)N[C@@H](C(C)C)C(=O)N[C@@H](C)C(=O)N[C@@H](Cc1ccc(O)cc1)C(=O)N2 (H-CVAY[AllylGly]IEHH[AllylGly]WTC-OH; disulfide 1-13; staple (E) 5-10) |
| inactive | – | CC[C@H](C)[C@@H]1NC(=O)[C@@H](NC(=O)[C@H](Cc2ccc(O)cc2)NC(C)=O)C/C=C/C[C@@H](C(=O)N[C@@H](Cc2c[nH]c3ccccc23)C(N)=O)NC(=O)[C@H](Cc2cnc[nH]2)NC(=O)[C@H](Cc2cnc[nH]2)NC(=O)[C@H](CCC(=O)O)NC1=O (Ac-Y[AllylGly]IEHH[AllylGly]W-NH2; staple (E) 2-7) |
| 165% | – | CC[C@H](C)[C@@H]1NC(=O)[C@@H]2CSSC[C@H](NC(=O)[C@H](C)NC(=O)[C@H](C)NC(=O)[C@H](C)NC1=O)C(=O)N[C@@H](Cc1c[nH]c3ccccc13)C(=O)N[C@@H]([C@@H](C)O)C(=O)N[C@H](C(N)=O)CSSC[C@H](N)C(=O)N[C@@H](C(C)C)C(=O)N[C@@H](C)C(=O)N[C@@H](Cc1ccc(O)cc1)C(=O)N2 (H-CVAYCIAAACWTC-NH2; disulfide 1-13, 5-10) |
| 225% | 4 | CC[C@H](C)[C@@H]1NC(=O)[C@@H]2C/C=C/C[C@H](NC(=O)[C@H](Cc3cnc[nH]3)NC(=O)[C@H](C)NC(=O)[C@H](C)NC1=O)C(=O)N[C@@H](Cc1c[nH]c3ccccc13)C(=O)N[C@@H]([C@@H](C)O)C(=O)N[C@H](C(=O)O)CSSC[C@H](N)C(=O)N[C@@H](C(C)C)C(=O)N[C@@H](C)C(=O)N[C@@H](Cc1ccc(O)cc1)C(=O)N2 (H-CVAY[AllylGly]IAAH[AllylGly]WTC-OH; disulfide 1-13; staple (E) 5-10) |
| 226% | – | CC[C@H](C)[C@@H]1NC(=O)[C@@H]2CSSC[C@H](NC(=O)[C@H](C)NC(=O)[C@H](C)NC(=O)[C@H](CCC(=O)O)NC1=O)C(=O)N[C@@H](Cc1c[nH]c3ccccc13)C(=O)N[C@@H]([C@@H](C)O)C(=O)N[C@H](C(N)=O)CSSC[C@H](N)C(=O)N[C@@H](C(C)C)C(=O)N[C@@H](C)C(=O)N[C@@H](Cc1ccc(O)cc1)C(=O)N2 (H-CVAYCIEAACWTC-NH2; disulfide 1-13, 5-10) |
